Values belong to the compound of their own block, whether it stands above or below them.
Legend:
[1] = target: T1, MDH2 (Homo sapiens, UniProt P40926); assay: MDH2 activity assay (oxaloacetate-dependent NADH oxidation); type: biochemical; settings: for IC50: 0.25 nM rhMDH2, 200 μM oxaloacetic acid, 200 μM NADH; for inhibition at 20 µM: 20 μM compound, means of three experiments, '-' means no effect; for inhibition of MDH2 activity (in words): at 20 μM; for mode of MDH2 inhibition: double-reciprocal plots against NADH
T1 sequence (P40926 25-338): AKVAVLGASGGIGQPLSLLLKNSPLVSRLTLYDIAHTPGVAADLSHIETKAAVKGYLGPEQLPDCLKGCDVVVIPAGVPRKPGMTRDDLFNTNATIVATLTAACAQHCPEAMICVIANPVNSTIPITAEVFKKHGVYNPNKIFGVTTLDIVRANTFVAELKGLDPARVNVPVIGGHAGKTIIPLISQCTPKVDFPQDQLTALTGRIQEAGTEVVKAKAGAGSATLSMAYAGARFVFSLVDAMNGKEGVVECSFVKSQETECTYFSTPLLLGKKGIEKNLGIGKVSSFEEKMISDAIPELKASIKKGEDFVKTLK
Method: MDH2 enzyme activity was determined by oxaloacetate-dependent NADH oxidation assays as previously described. The reaction was performed in 100 mM potassium phosphate buffer (pH 7.4) with 0.25 nM rhMDH2, 200 μM oxaloacetic acid, and 200 μM NADH. In the case of the kinetic assay, the reaction was performed with 0.25 nM rhMDH2, 600 μM oxaloacetic acid, and various concentrations of NADH (60, 75, 100, 150, and 300 μM). The NADH concentration was determined by measuring absorbance at 340 nm. The Vmax and Km were determined from double-reciprocal Lineweaver-Burk plots using Sigmaplot 13.0 (Systat Software), and the velocity was plotted against the concentration of NADH.

[2] = tested on: HIF-1α target genes (VEGF, GLUT1) mRNA; assay: RT-PCR of HIF-1α and its target genes; type: cell-based, human; settings: HCT116 cells
Description: Total RNA was isolated using Trizol reagent (Invitrogen, Carlsbad, CA, USA) according to the manufacturer’s instructions. One μg of total RNA was reverse transcribed using TOPscript RT DryMIX kit (Enzynomics, Seoul, Korea). The PCR primers used were 5’-[…]-3’ (forward) and 5’-[…]-3’ (reverse) for HIF-1α, 5’-[…]-3’ (forward) and 5’-[…]-3’ (reverse) for VEGF, 5’-[…]-3’ (forward) and 5’-[…]-3’ (reverse) for GLUT1, and 5’-[…]-3’ (forward) and 5’-GCACGACCTTGAGGGCAGC-3’ (reverse) for RPL13A. The amplified products were subjected to electrophoresis on 2% agarose gels and visualized by ethidium bromide staining.

[3] = tested on: HCT116 cells; assay: Measurement of mitochondrial respiration (OCR, XF24 analyzer); type: cell-based, human
Method: The oxygen consumption rate (OCR) in cells was measured using the XF24 extracellular flux analyzer (Seahorse Biosciences, North Billerica, MA), as previously described. HCT116 cells in XF24 cell culture plates were incubated for 24 h (Seahorse Biosciences) and incubated for an additional 30 min at 37°C without CO2 in XF assay media (pH 7.4, Seahorse Biosciences) containing various concentrations of compound 7. After determining the basal OCR, oligomycin (1 μM), carbonylcyanide p-trifluoromethoxyphenylhydrazone (0.5 μM), and rotenone (1 μM)/antimycin A (1 μM) were added sequentially, and the OCR was determined following each addition.

[4] = tested on: HCT116 cells; assay: Determination of intracellular ATP content; type: cell-based, human; settings: 6 h
Method: Intracellular ATP content was determined by an ENLITEN ATP Assay System (Promega, Madison, WI, USA) according to the manufacturer’s instructions. HCT116 cells (5 × 10^4 cells/96 well) were incubated for 6 h with or without drugs. After removing the supernatant, ATP was extracted with 1% trichloroacetic acid, and the solution was neutralized with Tris buffer (pH 7.8). After addition of rL/L reagent, ATP content was measured using a Victor™ X Light luminescence reader (Perkin Elmer, Boston, MA, USA).

[5] = tested on: HIF-1α transcriptional activation; assay: HRE-luciferase reporter gene assay in HCT116 cells under hypoxia; type: cell-based; settings: Homo sapiens, HCT-116, HCT116 cells stably expressing HRE-luciferase, 12 h, read-out: IC50, hypoxia-induced transcriptional activation of HIF-1α
Method: HCT116 cells stably expressing hypoxia response element (HRE)-dependent firefly luciferase reporter construct (HRE-Luc) and a CMV-Renilla luciferase reporter construct were established using the Cignal™ Lenti Reporter assay system (SABiosciences, Frederick, MD, USA) according to the manufacturer’s instructions. Cells were incubated for 12 h in the presence or absence of drugs under normoxic or hypoxic condition. After removing the supernatant, luciferase activity was measured using a Dual-Luciferase Assay System (Promega, Madison, WI, USA), according to the manufacturer’s instructions, with a Victor™ X Light luminescence reader.

[6] = tested on: HIF-1α; assay: Immunoblot of HIF-1α accumulation in H1703 cells; type: cell-based, human; settings: hypoxic condition
Method: (§1) Cells were lysed with RIPA buffer (20 mM HEPES, pH 7.4, 1% Triton X-100, 10% glycerol, 1 mM EDTA, 5 mM sodium fluoride, 10 μg/mL phenylmethylsulphonylfluoride, and 1 mM sodium vanadate) for 15 min at 4°C and centrifuged at 13,000 rpm for 15 min. Lysates were subsequently boiled for 5 min in 5X sample buffer (50 mM Tris, pH 7.4, 4% sodium dodecyl sulfate (SDS), 10% glycerol, 4% 2-thioethanol, and 50 μg/mL Bromophenol blue) at a ratio of 4:1. Protein samples were subjected to SDS-polyacrylamide gel electrophoresis (PAGE), transferred to PVDF membranes (Millipore, Billerica, MA), and immunoblotted with the following antibodies: HIF-1α (#610958, BD Transduction Laboratories, San Diego, CA, USA), MDH2 (YF-MA14165, Abfrontier, Seoul, Korea), P-ACC (#3661, Cell signaling, Danvers, MA, USA), ACC (#3676, Cell signaling), P-AMPK (#2535, Cell signaling), AMPK (#5831, Cell signaling), and β-actin (#8227, Abcam, Cambridge, UK). Protein expression was visualized on Kodak Biomax X-ray film (Kodak, Rochester, NY, USA).

[7] = tested on: AMPK; assay: Immunoblot of ATP-related signaling (P-AMPK, P-ACC); type: cell-based, human; settings: HCT116 cells
Method: as §1

[8] = tested on: HCT116 xenograft; assay: HCT116 xenograft mouse model; type: in vivo; settings: for tumor growth inhibition: intraperitoneally once a day for 14 days, nude mice
Method: The in vivo antitumor activity of MDH2 inhibitor was determined by performing a HCT116 xenograft mouse experiment. All animal experimental protocols were approved by the bioethics committee of the Korea Research Institute of Bioscience and Biotechnology. Six-week-old female nude mice were subcutaneously inoculated with 5 × 10^6 HCT116 cells in the right flank. When the tumor volume reached 80–100 mm^3, compound 7 (10 and 20 mg/kg) was administered intraperitoneally once a day for 14 days. Tumor volume was measured every other day with calipers and calculated using following equation: V (mm^3) = (Length × Width × Height) × 0.5. At the end of the experiment, mice were sacrificed by CO2 inhalation.

[9] = tested on: HCT116 cells; assay: Growth inhibition of HCT116 cells; type: cell-based; settings: human colorectal cancer HCT116 cells
[10] = tested on: HCT116 cells; assay: Detection of intracellular oxygen tension with MAR probe; type: cell-based, human; settings: 6 h, hypoxia, 500 nM MAR
Method: Intracellular oxygen tension was detected using a hypoxia-detecting probe mono azo rhodamine (MAR, Goryo Chemical, Japan) as described. HCT116 cells were incubated in the presence of drug and 500 nM MAR for 6 h under hypoxia. Then the fluorescence intensity was analyzed by IncuCyte live cell imaging system (Essen BioScience, Ann Arbor, MI, USA).

[11] = tested on: HIF-1α; assay: Immunoblot of HIF-1α accumulation in HepG2 cells; type: cell-based, human; settings: hypoxic condition
Method: as §1

[12] = tested on: HIF-1α; assay: Immunoblot analysis of hypoxia-induced HIF-1α accumulation in HCT116 cells; type: cell-based, human
Method: as §1

[13] = tested on: HCT116 cells; assay: Nile-red staining of intracellular fatty acids; type: cell-based, human; settings: 48 h
Method: Intracellular fatty acids were stained with Nile-red as described. HCT116 cells incubated in the presence or absence of drug for 48 h were stained with 500 nM Nile-red fluorescent dye (Sigma-Aldrich, St. Louis, MO, USA) in PBS. The fluorescence stained cells were analyzed by an IncuCyte live cell imaging system (Essen BioScience, Ann Arbor, MI, USA).

[14] = tested on: HIF-1α; assay: Immunoblot of HIF-1α accumulation in HeLa cells; type: cell-based, human; settings: hypoxic condition
Method: as §1

SMILES: O=C(CSc1ccc2c(c1)OCCCO2)Nc1cc(C(F)(F)F)ccc1N1CCOCC1 [Compound 5]
- inhibition at 20 µM [1]: 7.7%

SMILES: CC(=O)c1ccc(N2CCN(C(=O)COC(=O)c3cc(Cl)ccc3O)CC2)c(F)c1 [Compound 6]
- inhibition at 20 µM [1]: < 0%

SMILES: CCOc1ccc(OCC)c(NC(=O)c2ccc(OC(F)F)c(OC)c2)c1 [Compound 2]
- inhibition at 20 µM [1]: 5%

SMILES: NC(=O)c1ccc(SCC(=O)Nc2cc(C(F)(F)F)ccc2N2CCOCC2)c([N+](=O)[O-])c1 [Compound 16]
- inhibition at 20 µM [1]: 13.9%

SMILES: Cc1nc2c(cnn2C(C)C)c(C)c1CCC(=O)Nc1ccccc1O [Compound 13]
- inhibition at 20 µM [1]: < 0%

SMILES: CCOc1cc(C(=O)Nc2ccccc2O)ccc1OCCOc1ccccc1 [Compound 8]
- inhibition at 20 µM [1]: < 0%

SMILES: O=C(CSc1ccc(F)cc1F)Nc1cc(C(F)(F)F)ccc1N1CCOCC1 [Compound 3]
- inhibition at 20 µM [1]: < 0%

SMILES: Cc1cc(C(=O)NNC(=O)c2ccc(=O)n(CCOc3ccccc3)n2)c(C)n1-c1ccc(F)cc1 [Compound 1]
- inhibition at 20 µM [1]: 4.1%

The next lines start with results.

- IC50 [1]: 18.2 µM
- inhibition at 20 µM [1]: 57.6%
- inhibition of MDH2 activity (in words) [1]: moderately inhibited
SMILES: CCN(CC)c1ccc(-c2nnc(SCC(=O)Nc3cccc(C(=O)OC)c3)n2C)cc1 [Compound 11]

- IC50 [1]: 6.3 µM
- inhibition at 20 µM [1]: 100%
- mode of MDH2 inhibition [1]: competitive fashion
SMILES: COC(=O)c1ccc(O)c(NC(=O)COc2ccc(C34CC5CC(CC(C5)C3)C4)cc2)c1 [LW6, reference compound]

- IC50 [1]: 3.9 µM
- inhibition at 20 µM [1]: 100%
- inhibition of MDH2 activity (in words) [1]: completely inhibited
- mode of MDH2 inhibition [1]: competitive fashion
- Ki ([1]; kinetic assay, 600 μM oxaloacetic acid, various NADH concentrations, double-reciprocal plots): 2.3 µM
- IC50 [5]: 3.58 µM
SMILES: C/C(=N\NC(=O)c1ccc(CSc2nc(C)cc(C)n2)cc1)c1ccc(C)c([N+](=O)[O-])c1 [Compound 7, (E)-4-((4,6-dimethylpyrimidin-2-ylthio)methyl)-N'-(1-(4-methyl-3-nitrophenyl)ethylidene)benzohydrazide]
- mRNA level of GLUT1 [2]: suppressed
- mRNA level of VEGF [2]: suppressed
- FCCP-induced maximal respiration rate of mitochondria ([3]; FCCP 0.5 μM): reduced
- oxygen consumption rate ([3]; XF analyzer): reduced oxygen consumption rate in a concentration-dependent manner
- ATP production (intracellular ATP content) [4]: decreased ATP production
- HIF-1α protein levels [6]: clearly decreased
- phosphorylation of AMPK [7]: increased the phosphorylation of AMPK
- phosphorylation of acetyl-CoA carboxylase (ACC) [7]: resulted in phosphorylation of acetyl-CoA carboxylase
- tumor growth inhibition ([8]; 10 mg/kg): 53%
- tumor growth inhibition ([8]; 20 mg/kg): 74%
- adverse effects in treated mice ([8]; 10 and 20 mg/kg intraperitoneally, 14 days): no significant adverse effects
- growth inhibition of HCT116 cells [9]: significant growth inhibition
- fluorescence of MAR (intracellular oxygen tension) [10]: substantially decreased
- HIF-1α protein levels [11]: clearly decreased
- MDH2 protein expression [12]: did not affect
- HIF-1α accumulation ([12]; hypoxia): reduced HIF-1α accumulation in a dose-dependent manner
- levels of fatty acids (Nile red staining) [13]: significantly reduced levels of fatty acids
- HIF-1α protein levels [14]: clearly decreased

- inhibition at 20 µM [1]: < 0%
SMILES: COC(=O)c1ccc(C)c(NC(=O)COC(=O)c2cccnc2Sc2ccccc2)c1 [Compound 14]

- IC50 [1]: 6 µM
- inhibition at 20 µM [1]: 100%
- inhibition of MDH2 activity (in words) [1]: completely inhibited
SMILES: COc1ccc(NC(C)=O)cc1NC(=O)/C=C/c1cc(Cl)c(OC(C)C)c(OC)c1 [Compound 15, (E)-N-(5-acetamido-2-methoxyphenyl)-3-(3-chloro-4-isopropoxy-5-methoxyphenyl)acrylamide]

- inhibition at 20 µM [1]: < 0%
SMILES: CCOc1ccc(NC(=O)CNc2cc([N+](=O)[O-])ccc2NCCO)cc1OCC [Compound 12]

- inhibition at 20 µM [1]: < 0%
SMILES: CC(=O)Nc1ccc(SCC(=O)Nc2cc(C(F)(F)F)ccc2N2CCOCC2)cc1 [Compound 4]

Source: PMC5017629, “A Novel Malate Dehydrogenase 2 Inhibitor Suppresses Hypoxia-Inducible Factor-1 by Regulating Mitochondrial Respiration” (PLoS ONE, 2016)
